How the values were obtained:
[1] = tested on: CLP-induced mouse model of sepsis; experiment: Cecal ligation and puncture (CLP)-induced mouse model of sepsis; type: in vivo; conditions: CLP mice, 5 mg/kg p.o. 1 h after onset of CLP, assessed 24 h after CLP
Description: This study was be carried out on 10-week old, male C57BL/6 mice (n=5-10 per group) (Charles River Laboratories UK Ltd., Kent, UK) weighing 20-30 g kept under standard laboratory conditions. The animals were allowed to acclimatise to laboratory conditions for at least one week before undergoing experiments. Six mice were housed together in ventilated cages lined with absorbent bedding material. Tubes and chewing blocks were placed in all cages for environmental enrichment. All animals were subjected to 12-h light and dark cycles and the temperature was maintained at 19-23° C. All animals had access to a chow diet and water ad libitum. The cages were cleaned approximately every three days, with water being changed daily. […]
Ten-week-old, male C57BL/6 mice were injected with buprenorphine (0.05 mg/kg, i.p.). […] Temperature was monitored via a rectal probe and kept at 37° C. by a homeothermic mat. […] After 24 h, cardiac function was assessed by echocardiography in vivo. […] The organs (heart, lungs, liver, kidney, spleen) and blood was collected for further analysis to quantify organ injury/dysfunction. […]
Cardiac function in mice was assessed by echocardiography in vivo by means of the Vevo 3100 imaging system (VisualSonics, Toronto, Ontario, Canada). […] During echocardiography, the heart rate was recorded, and a rectal thermometer was recorded to measure core body temperature. […]

HEK293 cells = experiment: Fatty acid uptake assay using HEK293 cells; type: cell-based; conditions: Homo sapiens, racemic mixture, FIG. 1
Experimental: HEK293 cells were thawed and centrifuged at 400 g in 1 min, whereafter the supernatant was discarded. The cells were resuspended in DMEM+GlutaMax medium (cat #10566016, Invitrogen) containing 10% fetal calf serum (cat #10270-106, Invitrogen) and 1% penicillin/streptomycin (cat #15140-122, Life Technologies). HEK293 cells were seeded into a T25 flask and incubated at 37 degrees Celsius until 80% confluency. When the HEK293 cells reached confluency, cells were counted and seeded in a 96-well plate and with a volume of 10.000 cells/well in medium (as described above) and incubated overnight. Three wells were without cells serving as controls.
The cells were divided into two groups: 1) Example 1, and 2) Untreated. The fatty acid uptake assay (cat #408-100, BioVision) was carried out according to the protocol from BioVision. The only exception to the protocol was that the measurements in the PerkinElmer Multimode Plate Reader Enspire instrument was running overnight.
Statistics was performed in GraphPad Prism version 8.0. Repeated measure two-way ANOVA were conducted as the groups were tested multiple times followed by a multiple comparison Bonferroni post hoc test.

## CC(=O)N1CCC(c2nc(-c3ccncc3)cs2)N(C(=O)COc2ccccc2)CC1 (single isomer, unassigned) [Example 1, 1-(4-acetyl-7-(4-(pyridin-4-yl)thiazol-2-yl)-1,4-diazepan-1-yl)-2-phenoxyethan-1-one]
[1]; FIG. 2A
  heart rate: maintained
[1]; FIG. 2G
  pulmonary artery flow: maintained
HEK293 cells
  IC50: 300 nM

Source: patent US20240293424A1, “CARNITINE-PALMITOYL-TRANSFERASE-1 (CPT-1) INHIBITORS FOR USE IN A METHOD OF PREVENTING OR TREATING SEPSIS IN A MAMMALIAN SUBJECT” (2N PHARMA APS, priority 2021, published 2024)
